In patent US20260272865A1, “HYDROXYPHENYL PROPANOATE COMPOUNDS FOR TUMOUR IMMUNOTHERAPY, COMPOSITIONS AND USES THEREOF” (UTI LIMITED PARTNERSHIP, priority 2023, published 2026):

Key:
[1] = system: M3-9-M^OVA tumours; assay: Orthotopic M3-9-M^OVA rhabdomyosarcoma in IMDM-CR mice: immune surveillance, overall survival; assay type: in vivo, mouse
[2] = system: B16.F10 melanoma tumours; assay: Subcutaneous B16.F10 melanoma in IMDM-CR mice: overall survival; assay type: in vivo, mouse
[3] = system: OVA-specific CD8 T cells; assay: Flow cytometry of OVA-specific CD8 T cells within M3-9-M^OVA tumours; assay type: in vivo, mouse; conditions: male IMDM-CR mice, 18 days after implantation
Description: Tumours were isolated from mice and single cell suspensions were made using a mouse tumour dissociation kit following the manufacturer's instructions (Miltenyi Biotec). The isolated tumours were minced into pieces ~2-4 mm in diameter using a sterile scalpel, homogenized the tumour samples in RPMI 1640 media and enzyme mix for 1 minute, and incubated the homogenates for 40 minutes with continuous gentle shaking at 37° C. The homogenates were then filtered through a 70 μm cell strainer followed by centrifuging the single cell suspensions. The red blood cells (RBC) were removed using RBC lysis buffer. A Percoll gradient based leukocyte separation was performed followed by live and dead cell staining using Zombie Aqua dye (BioLegend). Cell surface markers were stained using ant-CD4-FITC (clone RM4-4, BioLegend), anti-CD8-PE.Cy7 (clone 53-6.7, BioLegend), anti-CD3-BV421 (clone 145-2C11, BioLegend), anti-CD45-APC.Cy7 (clone 30-F11, BioLegend), anti-PD-1-FITC (clone 29F.1A12, BioLegend), anti-TIM3-PE (clone RMT3-23, BioLegend) and anti-LAG3-PerCP/Cy5.5 (clone C9B7W, BioLegend) for T lymphocytes. For OVA-specific CD8 T cell detection, H-2K(b) chicken ova 257-264 human B2M SIINFEKL Alexa 647-labeled tetramer was used. The cells were washed after staining with FACS buffer and quantified using the Attune NxT Flow Cytometer (Thermo Fisher Scientific).

[4] = system: NF-κB pathway; assay: NF-κB activity reporter assay in THP1-Dual cells; assay type: cell-based, human
Description: NF-κB and IRF induction assays were performed using mouse RAW-Dual™ (InvivoGen) and human THP1-Dua™ (InvivoGen) reporter cell lines. The cells were resuspended in freshly prepared test media at a concentration of 1.0×10^6 cells/mL for RAW-Dual™ and 5.0×10^5 cells/mL for THP1-Dual™. 180 μL of cells were seeded per well in a standard 96-well plate and optimized the concentration of several PRR agonists that trigger NF-κB and IRF. To test the metabolite effect on these pathways, 10 μL of the optimized receptor agonist, 10 μL of the 2 mM metabolite solution or vehicle was added to each well, making a final volume of 200 μL. To neutralize IL-1 receptor signalling, anti-IL-1a (clone 7D4, InvivoGen) and anti-IL-1β (clone 4H5, InvivoGen) antibodies were added and IgG1 isotype (clone T8E5, InvivoGen) was used as a control, as per manufacturer's recommendation. NF-κB activity was determined by measuring secreted embryonic alkaline phosphatase (SEAP) levels using QUANTI-Blue™ solution (InvivoGen). After aliquoting 20 μL of cell culture supernatant into 180 μL of QUANTI-Blue™, the conversion of color to blue was monitored and SEAP levels were determined using a SpectraMax i3 from Molecular Devices at 650 nm. To assess IRF induction, secreted lucia luciferase levels were measured in the culture medium using QUANTI-Luc™ solution (InvivoGen). 20 μL of cell culture supernatant was aliquoted into 50 μL of QUANTI-Luc™ solution and the luminescence reading was immediately recorded using the SpectraMax i3.

## O=C(O)CCc1ccccc1O [Compound I-1, 3-(2-hydroxyphenyl)propanoic acid]
[1]; IMDM-CR mice, M3-9-M^OVA, treatment started 7 days after implantation
  overall survival, treatment initiated seven days after implantation: still effective
[1]; male IMDM-CR mice, i.p. treatment from day 1 post-implantation
  immune surveillance of M3-9-M^OVA tumours (overall survival): enhance the immune surveillance
[2]; IMDM-CR mice, B16.F10, treatment started 7 days after implantation
  overall survival, treatment initiated seven days after implantation: still effective
[2]; female IMDM-CR mice, B16.F10 tumours, 3,2-HPP i.p. plus anti-PD-L1
  overall survival, combination with anti-PD-L1 vs anti-PD-L1 alone: further improvement
[2]; female IMDM-CR mice, i.p. treatment from day 1
  overall survival / immune surveillance of B16.F10 melanoma: increased the overall survival
[3]
  expression of exhaustion markers PD1, TIM3, LAG3 on OVA-specific CD8 T cells: no significant changes
  frequency of OVA-specific CD8 T cells in the tumour: increase the frequency
[4]; LPS or other NF-κB pathway inducers
  NF-κB pathway activation combined with PRR agonists: potentiate
[4]; LPS, 16 hours, vs vehicle
  NF-κB pathway activation when treated with LPS: potentiates
